Where two headings read alike, the source gives them in different places.

In this assay the test system is HBV. The experiment in a line: In-vitro anti-HBV activity in stable HBV-producing cell line (HepG2.2.15), HBV DNA in culture fluid by qPCR. The format is cell-based. The note with it: Hepatitis B virus, read-out: HBV (% Inh.) (500 nmol). The procedure:
In-Vitro Anti-HBV Activity of Compounds in Stable HBV-Producing Cell Line (HepG2.2.15)
HBV DNA contents in cell culture fluid were detected by the qPCR-based assay and percents of HBV inhibition by compounds (% Inh) were calculated. Specific procedures are as follows:
HepG2.2.15 cells were seeded into each well of 96-well plates, 40,000 cells per well. Cells were treated with cell culture medium containing compounds 24 hours after cell seeding. Each compound to detected percent inhibition was in duplicate and the final concentration of each compound was 500 nmol in each well. The compound-containing mediums were refreshed on day 4 post cell seeding. Culture media were collected from the HepG2.2.15 plates on day 7 post cell seeding followed by HBV DNA extraction.
HBV DNA extraction: using QIAamp 96 DNA Blood Kit (QIAGEN 51161).
PCR for quantification: PCR mix was prepared according to PCR system; PCR mix was dispensed to 384-well optical reaction plates (special for quantification); The standard diluted proportionally was added; The sample was added; The plates were sealed with optical adhesive film; PCR system was performed according to programs.
Percent of HBV inhibition of DNA replication by compound was calculated using the following equation: % Inh.=[1-HBV DNA quantity of sample/HBV DNA quantity of DMSO control]*100. II. Assay Results
Background: In qPCR the cycle at which signal appears reflects the starting amount.

Setting [1] is: 168 h, 500 nmol final concentration, HepG2.2.15 cells, HBV DNA in culture media on day 7 post seeding, vs DMSO control.

As to `COC(=O)C1=C(CN2CCOC(C(=O)O)C2)NC(c2nccs2)=NC1c1ccc(F)cc1Br` (stereo not shown) [Example 12, 4-((6-(2-bromo-4-fluorophenyl)-5-(methoxycarbonyl)-2-(thiazol-2-yl)-3,6-dihydropyrimidin-4-yl)methyl)morpholine-2-carboxylic acid], under setting [1], the inhibition at 0.5 µM stood at 53.8%.
Regarding `CCOC(=O)C1=C(CN2CCOC[C@H]2C(=O)NO)NC(c2nccs2)=NC1c1ccc(F)cc1Br` (stereo partly drawn) [Example 52, Ethyl 4-(2-bromo-4-fluorophenyl)-6-(((S)-3-(hydroxycarbamoyl)morpholino)methyl)-2-(thiazol-2-yl)-1,4-dihydropyrimidine-5-carboxylate], the inhibition at 0.5 µM under setting [1] stood at 89.5%.
On to `CCOC(=O)C1=C(CN2CCOC(C(=O)O)C2)NC(c2ncn(C)n2)=NC1c1ccc(F)cc1Br` (stereo not shown) [Example 83, 4-((6-(2-bromo-4-fluorophenyl)-5-(ethoxycarbonyl)-2-(1-methyl-1H-1,2,4-triazol-3-yl)-3,6-dihydropyrimidin-4-yl)methyl)morpholine-2-carboxylic acid], for which the inhibition at 0.5 µM under setting [1] came to 36%.
Consider `CCOC(=O)C1=C(CN2CCOC(C(=O)O)C2)NC(c2nccs2)=NC1c1ccc(F)cc1Cl` (stereo not shown) [Example 10, 4-((6-(2-chloro-4-fluorophenyl)-5-(ethoxycarbonyl)-2-(thiazol-2-yl)-3,6-dihydropyrimidin-4-yl)methyl)morpholine-2-carboxylic acid], for which, under setting [1], the inhibition at 0.5 µM stood at 89.7%.
As to `CCOC(=O)C1=C(CN2CCOCC2C(=O)O)NC(c2nccs2)=NC1c1ccccc1C(F)(F)F` (stereo not shown) [Example 1, 4-((5-(ethoxycarbonyl)-2-(thiazol-2-yl)-6-(2-(trifluoromethyl)phenyl)-3,6-dihydropyrimidin-4-yl)methyl)morpholine-3-carboxylic acid], the inhibition at 0.5 µM under setting [1] amounted to 75.8%.
Turning to `CCOC(=O)C1=C(CN2CCOCC2C(=O)OC)NC(c2nccs2)=NC1c1ccc(F)cc1Br` (stereo not shown) [Example 51, Methyl 4-((6-(2-bromo-4-fluorophenyl)-5-(ethoxycarbonyl)-2-(thiazol-2-yl)-3,6-dihydropyrimidin-4-yl)methyl)morpholine-3-carboxylate], the inhibition at 0.5 µM (HepG2.2.15, 168 h) is 91.3%.
On to `COC(=O)C1=C(CN2CCOC(C(=O)O)C2)NC(c2nccs2)=NC1c1ccc(F)cc1Cl` (stereo not shown) [Example 13, 4-((6-(2-chloro-4-fluorophenyl)-5-(methoxycarbonyl)-2-(thiazol-2-yl)-3,6-dihydropyrimidin-4-yl)methyl)morpholine-2-carboxylic acid], for which the inhibition at 0.5 µM under setting [1] came out at 54.5%.
In the case of `CCOC(=O)C1=C(CN2CCOCC2C(=O)OC(C)C)NC(c2nccs2)=NC1c1ccc(F)cc1Br` (stereo not shown) [Example 77, Isopropyl 4-((6-(2-bromo-4-fluorophenyl)-5-(ethoxycarbonyl)-2-(thiazol-2-yl)-3,6-dihydropyrimidin-4-yl)methyl)morpholine-3-carboxylate], the inhibition at 0.5 µM under setting [1] was found to be 91.9%.
For `CCOC(=O)C1=C(CN2CCOCC2C(N)=O)NC(c2nccs2)=NC1c1ccc(Cl)cc1Cl` (stereo not shown) [Example 27, Ethyl 6-((3-carbamoylmorpholino)methyl)-4-(2,4-dichlorophenyl)-2-(thiazol-2-yl)-1,4-dihydropyrimidine-5-carboxylate], under setting [1], the inhibition at 0.5 µM stood at 91.9%.
With `CCOC(=O)C1=C(CN2CCOCC2C(=O)NC)NC(c2nccs2)=NC1c1ccc(F)cc1Br` (stereo not shown) [Example 136, Ethyl 4-(2-bromo-4-fluorophenyl)-6-((3-(methylcarbamoyl)morpholino)methyl)-2-(thiazol-2-yl)-1,4-dihydropyrimidine-5-carboxylate], under setting [1], the inhibition at 0.5 µM worked out at 95.8%.
`CCOC(=O)C1=C(CN2CCOCC2C(=O)O)NC(c2ncn(C)n2)=NC1c1ccc(F)cc1Br` (stereo not shown) [Example 123, 4-((6-(2-bromo-4-fluorophenyl)-5-(ethoxycarbonyl)-2-(1-methyl-1H-1,2,4-triazol-3-yl)-3,6-dihydropyrimidin-4-yl)methyl)morpholine-3-carboxylic acid]: under setting [1], the inhibition at 0.5 µM is 37.5%.
Same read-out and setting: with `CCOC(=O)C1=C(CN2CCOCC2C(=O)O)NC(c2ncc(F)s2)=NC1c1ccc(F)cc1Cl` (stereo not shown) [Example 121, 4-((6-(2-chloro-4-fluorophenyl)-5-(ethoxycarbonyl)-2-(5-fluorothiazol-2-yl)-3,6-dihydropyrimidin-4-yl)methyl)morpholine-3-carboxylic acid] the figure was 48.5%; with `CCOC(=O)C1=C(CN2CCOCC2C(=O)OC(C)C)NC(c2nccs2)=NC1c1ccc(Cl)cc1Cl` (stereo not shown) [Example 78, Isopropyl 4-((6-(2,4-dichlorophenyl)-5-(ethoxycarbonyl)-2-(thiazol-2-yl)-3,6-dihydropyrimidin-4-yl)methyl)morpholine-3-carboxylate], 87.9%; with `CCOC(=O)C1=C(CN2CCOC(C(=O)O)C2)NC(c2nccs2)=NC1c1ccc(Cl)cc1Cl` (stereo not shown) [Example 11, 4-((6-(2,4-dichlorophenyl)-5-(ethoxycarbonyl)-2-(thiazol-2-yl)-3,6-dihydropyrimidin-4-yl)methyl)morpholine-2-carboxylic acid], 95.6%.
`CCOC(=O)C1=C(CN2CCOC[C@@H]2CO)NC(c2nccs2)=NC1c1ccc(Cl)cc1Cl` (stereo partly drawn) [Example 42, Ethyl 4-(2,4-dichlorophenyl)-6-(((S)-3-(hydroxymethyl)morpholino)methyl)-2-(thiazol-2-yl)-1,4-dihydropyrimidine-5-carboxylate]: the inhibition at 0.5 µM (HepG2.2.15, 168 h) came to 91.9%.
Regarding `CCOC(=O)C1=C(CN2CCO[C@H](CO)C2)NC(c2nccs2)=NC1c1ccc(F)cc1Br` (stereo partly drawn) [Example 66, Ethyl 4-(2-bromo-4-fluorophenyl)-6-(((S)-2-(hydroxymethyl)morpholino)methyl)-2-(thiazol-2-yl)-1,4-dihydropyrimidine-5-carboxylate], the inhibition at 0.5 µM (HepG2.2.15, 168 h) stood at 88.8%.
In the case of `CCOC(=O)C1=C(CN2CCOCC2C(=O)O)NC(c2nccs2)=NC1c1ccc(F)cc1Cl` (stereo not shown) [Example 4, 4-((6-(2-chloro-4-fluorophenyl)-5-(ethoxycarbonyl)-2-(thiazol-2-yl)-3,6-dihydropyrimidin-4-yl)methyl)morpholine-3-carboxylic acid], under setting [1], the inhibition at 0.5 µM was determined as 90%.
Still for that read-out and setting: the figure for `CCOC(=O)C1=C(CN2CCOCC2C(=O)OCOC(=O)OC(C)C)NC(c2nccs2)=NC1c1ccc(Cl)cc1Cl` (stereo not shown) [Example 80, ((Isopropoxycarbonyl)oxy)methyl 4-((6-(2,4-dichlorophenyl)-5-(ethoxycarbonyl)-2-(thiazol-2-yl)-3,6-dihydropyrimidin-4-yl)methyl)morpholine-3-carboxylate] is 91.9%; for `CCOC(=O)C1=C(CN2CC(C)(C)OC[C@H]2C(=O)OC)NC(c2nccs2)=NC1c1ccc(Cl)cc1Cl` (stereo partly drawn) [Example 24, Methyl (3S)-4-((6-(2,4-dichlorophenyl)-5-(ethoxycarbonyl)-2-(thiazol-2-yl)-3,6-dihydropyrimidin-4-yl)methyl)-6,6-dimethylmorpholine-3-carboxylate] it is 56.1%.
As to `CCOC(=O)C1=C(CN2CCOCC2C(=O)O)NC(c2nncs2)=NC1c1ccc(F)cc1Br` (stereo not shown) [Example 71, 4-((6-(2-bromo-4-fluorophenyl)-5-(ethoxycarbonyl)-2-(1,3,4-thiadiazol-2-yl)-3,6-dihydropyrimidin-4-yl)methyl)morpholine-3-carboxylic acid], under setting [1], the inhibition at 0.5 µM came out at 43.4%.
In the case of `CCOC(=O)C1=C(CN2CCOCC2C(=O)O)NC(c2nccs2)=NC1c1ccccc1[N+](=O)[O-]` (stereo not shown) [Example 2, 4-((5-(ethoxycarbonyl)-6-(2-nitrophenyl)-2-(thiazol-2-yl)-3,6-dihydropyrimidin-4-yl)methyl)morpholine-3-carboxylic acid], the inhibition at 0.5 µM under setting [1] worked out at 31.3%.
As to `CCOC(=O)C1=C(CN2CCOC[C@H]2C(=O)O)NC(c2nc(CC(=O)OC)cs2)=NC1c1ccc(F)cc1Br` (stereo partly drawn) [Example 61, (3S)-4-((6-(2-bromo-4-fluorophenyl)-5-(ethoxycarbonyl)-2-(4-(2-methoxy-2-oxoethyl)thiazol-2-yl)-3,6-dihydropyrimidin-4-yl)methyl)morpholine-3-carboxylic acid], the inhibition at 0.5 µM under setting [1] came to 91.1%.
On to `CCOC(=O)C1=C(CN2CCOCC2C(=O)O)NC(c2nnc(C)s2)=NC1c1ccc(F)cc1Br` (stereo not shown) [Example 69, 4-((6-(2-bromo-4-fluorophenyl)-5-(ethoxycarbonyl)-2-(5-methyl-1,3,4-thiadiazol-2-yl)-3,6-dihydropyrimidin-4-yl)methyl)morpholine-3-carboxylic acid], for which the inhibition at 0.5 µM under setting [1] was found to be 36.5%.
As to `CCOC(=O)C1=C(CN2CCOCC2C(=O)NC(C)C)NC(c2nccs2)=NC1c1ccc(Cl)cc1Cl` (stereo not shown) [Example 81, Ethyl 4-(2,4-dichlorophenyl)-6-((3-(isopropylcarbamoyl)morpholino)methyl)-2-(thiazol-2-yl)-1,4-dihydropyrimidine-5-carboxylate], the inhibition at 0.5 µM under setting [1] stood at 91.9%.
Turning to `CCOC(=O)C1=C(CN2CCOCC2C(N)=O)NC(c2nccs2)=NC1c1ccc(F)cc1Cl` (stereo not shown) [Example 26, Ethyl 6-((3-carbamoylmorpholino)methyl)-4-(2-chloro-4-fluorophenyl)-2-(thiazol-2-yl)-1,4-dihydropyrimidine-5-carboxylate], the inhibition at 0.5 µM under setting [1] amounted to 96%.

These data come from patent publication US9340538B2, “Dihydropyrimidine compounds and their application in pharmaceuticals” (SUNSHINE LAKE PHARMA CO., LTD., priority 2013, dated 2016).
